Results published in patent publication US20050107423A1, “Quinolone antibacterial agents” (priority 2003, published 2005).
In brackets after ≈: the same amount, converted by molar mass.

Key:
Test in all cases: Antibacterial assay, microtitration MIC (Test A)
Type in all cases: cell-based
E. faecalis MGH-2 = conditions: Enterococcus faecalis, MGH2, Gram Positive Bacteria; strain MGH-2; read-out: Minimum Inhibitory Concentrations E. faecalis MGH-2
Method: (§1) The compounds of the present invention were tested against an assortment of Gram-negative and Gram-positive organisms using standard microtitration techniques (Cohen et. al., Antimicrob., 1985;28:766; Heifetz, et. al., Antimicrob., 1974;6:124). The results of the evaluation are shown in Tables 1A and B, wherein “-” means no data.

S pyogenes C203 = conditions: Gram Positive Bacteria; strain C203; read-out: Minimum Inhibitory Concentrations S pyogenes C203
Method: as §1

S. aureus UC-76 = conditions: Staphylococcus aureus, UC76, Gram Positive Bacteria; strain UC-76; read-out: Minimum Inhibitory Concentrations S. aureus UC-76
Method: as §1

S. pneumo SV-1 = conditions: Gram Positive Bacteria; strain SV-1; read-out: Minimum Inhibitory Concentrations S. pneumo SV-1
Method: as §1

E. coli EC-2549 = conditions: Escherichia coli, EC2549, Gram Negative Bacteria; strain EC-2549; read-out: Minimum Inhibitory Concentrations E. coli EC-2549
Method: as §1

H. influenzae HI-3542 = conditions: Haemophilus influenzae, HI3542, Gram Negative Bacteria; strain HI-3542; read-out: Minimum Inhibitory Concentrations H. influenzae HI-3542
Method: as §1

M. catarrhalis BC-3531 = conditions: Moraxella catarrhalis, BC3531, Gram Negative Bacteria; strain BC-3531; read-out: Minimum Inhibitory Concentrations M. catarrhalis BC-3531
Method: as §1

SMILES | MIC (E. faecalis MGH-2) | MIC (S pyogenes C203) | MIC (S. aureus UC-76) | MIC (S. pneumo SV-1) | MIC (E. coli EC-2549) | MIC (H. influenzae HI-3542) | MIC (M. catarrhalis BC-3531)
Cc1c(N2CCC(C(O)C(C)(F)F)C2)c(F)cc2c(=O)c(C(=O)O)cn(C3CC3)c12 (centres unmarked) [drawing 369] | 0.25 µg/mL (≈ 0.589 µM) | 0.25 µg/mL (≈ 0.589 µM) | 0.004 µg/mL (≈ 0.00942 µM) | 0.125 µg/mL (≈ 0.295 µM) | – | – | –
CCC(=O)OC[C@@H]1CN(c2c(F)cc3c(=O)c(C(=O)O)cn(C4CC4)c3c2C)C[C@@H]1COC(=O)CC [drawing 412] | 0.5 µg/mL (≈ 0.995 µM) | 0.125 µg/mL (≈ 0.249 µM) | 0.03 µg/mL (≈ 0.0597 µM) | 0.06 µg/mL (≈ 0.119 µM) | – | – | –
COC[C@@H]1CN(c2c(F)cc3c(=O)c(C(=O)O)cn(C4CC4)c3c2C)C[C@@H]1COC [drawing 407] | 0.5 µg/mL (≈ 1.19 µM) | 0.25 µg/mL (≈ 0.597 µM) | 0.03 µg/mL (≈ 0.0717 µM) | 0.25 µg/mL (≈ 0.597 µM) | – | – | –
O=C(O)c1cn(C2CC2)c2c(OC(F)F)c(N3C[C@@H](CCO)[C@@H](CCO)C3)c(F)cc2c1=O [drawing 416] | 0.125 µg/mL (≈ 0.266 µM) | 0.125 µg/mL (≈ 0.266 µM) | 0.008 µg/mL (≈ 0.017 µM) | 0.125 µg/mL (≈ 0.266 µM) | – | – | –
COc1c(N2C[C@@H](CCO)[C@@H](CCO)C2)c(F)cc2c(=O)c(C(=O)O)cn(C3CC3)c12 [drawing 415] | 0.125 µg/mL (≈ 0.288 µM) | 0.06 µg/mL (≈ 0.138 µM) | 0.004 µg/mL (≈ 0.00921 µM) | 0.06 µg/mL (≈ 0.138 µM) | – | – | –
O=C(O)c1cn(-c2ccc(F)cc2F)c2nc(N3C[C@@H](CO)[C@@H](CO)C3)c(F)cc2c1=O [drawing 398] | 0.5 µg/mL (≈ 1.11 µM) | 0.5 µg/mL (≈ 1.11 µM) | 0.06 µg/mL (≈ 0.134 µM) | 0.5 µg/mL (≈ 1.11 µM) | – | – | –
COc1c(N2C[C@@H](CO)[C@@H](CO)C2)c(F)cc2c(=O)c(C(=O)O)cn(C3CC3)c12 [drawing 403] | 0.06 µg/mL (≈ 0.148 µM) | 0.06 µg/mL (≈ 0.148 µM) | 0.002 µg/mL (≈ 0.00492 µM) | 0.06 µg/mL (≈ 0.148 µM) | – | – | –
Cc1c(N2CCC(C(O)C(C)(F)F)C2)c(F)cc2c(=O)c(C(=O)O)cn(C3CC3)c12 (centres unmarked) [drawing 336] | – | – | – | – | 0.125 µg/mL (≈ 0.295 µM) | 0.03 µg/mL (≈ 0.0707 µM) | 0.03 µg/mL (≈ 0.0707 µM)
CC(O)(CO)C1CCN(c2c(F)cc3c(=O)c(C(=O)O)cn(C4CC4)c3c2Cl)C1 (centres unmarked) [drawing 339] | – | – | – | – | 0.125 µg/mL (≈ 0.294 µM) | 0.16 µg/mL (≈ 0.377 µM) | 0.03 µg/mL (≈ 0.0706 µM)
Nc1nc(-n2cc(C(=O)O)c(=O)c3cc(F)c(N4CCC(C(O)CO)C4)cc32)c(F)cc1F (centres unmarked) [drawing 325] | – | – | – | – | 0.06 µg/mL (≈ 0.129 µM) | 0.004 µg/mL (≈ 0.00861 µM) | 0.015 µg/mL (≈ 0.0323 µM)

Further lines, results first:

MIC (E. faecalis MGH-2) | MIC (S pyogenes C203) | MIC (S. aureus UC-76) | MIC (S. pneumo SV-1) | MIC (E. coli EC-2549) | MIC (H. influenzae HI-3542) | MIC (M. catarrhalis BC-3531) | SMILES
0.125 µg/mL (≈ 0.299 µM) | 0.125 µg/mL (≈ 0.299 µM) | 0.008 µg/mL (≈ 0.0191 µM) | 0.125 µg/mL (≈ 0.299 µM) | – | – | – | Cc1c(N2CC(C(O)CO)C(C)(C)C2)c(F)cc2c(=O)c(C(=O)O)cn(C3CC3)c12 (centres unmarked) [drawing 434]
2 µg/mL (≈ 5.34 µM) | 0.06 µg/mL (≈ 0.16 µM) | 0.125 µg/mL (≈ 0.334 µM) | 0.03 µg/mL (≈ 0.0801 µM) | – | – | – | Cc1c(N2CCC(CCO)C2)c(F)cc2c(=O)c(C(=O)O)cn(C3CC3)c12 (centres unmarked) [drawing 341]
0.125 µg/mL (≈ 0.305 µM) | 0.25 µg/mL (≈ 0.609 µM) | 0.008 µg/mL (≈ 0.0195 µM) | 0.06 µg/mL (≈ 0.146 µM) | – | – | – | Cc1c(N2CCC(C(F)(F)CO)C2)c(F)cc2c(=O)c(C(=O)O)cn(C3CC3)c12 (centres unmarked) [drawing 368]
0.125 µg/mL (≈ 0.311 µM) | 0.125 µg/mL (≈ 0.311 µM) | 0.008 µg/mL (≈ 0.0199 µM) | 0.125 µg/mL (≈ 0.311 µM) | – | – | – | Cc1c(N2C[C@@H]3C[C@@H](O)[C@@H](O)[C@@H]3C2)c(F)cc2c(=O)c(C(=O)O)cn(C3CC3)c12 [drawing 457]
0.125 µg/mL (≈ 0.3 µM) | 0.25 µg/mL (≈ 0.6 µM) | 0.008 µg/mL (≈ 0.0192 µM) | 0.06 µg/mL (≈ 0.144 µM) | – | – | – | Cc1c(N2C[C@@H]3CC[C@@](O)(CO)[C@@H]3C2)c(F)cc2c(=O)c(C(=O)O)cn(C3CC3)c12 [drawing 461]
0.06 µg/mL (≈ 0.148 µM) | 0.06 µg/mL (≈ 0.148 µM) | 0.004 µg/mL (≈ 0.00989 µM) | 0.03 µg/mL (≈ 0.0742 µM) | – | – | – | COC[C@@H]1CN(c2c(F)cc3c(=O)c(C(=O)O)cn(C4CC4)c3c2C)C[C@@H]1CO [drawing 408]
0.125 µg/mL (≈ 0.311 µM) | 0.25 µg/mL (≈ 0.621 µM) | 0.015 µg/mL (≈ 0.0373 µM) | 0.125 µg/mL (≈ 0.311 µM) | – | – | – | COc1c(N2CCC(C3(O)CC3)C2)c(F)cc2c(=O)c(C(=O)O)cn(C3CC3)c12 (centres unmarked) [drawing 360]
– | – | – | – | 0.125 µg/mL (≈ 0.3 µM) | 0.015 µg/mL (≈ 0.036 µM) | 0.03 µg/mL (≈ 0.072 µM) | Cc1c(N2C[C@@H]3CC[C@@](O)(CO)[C@@H]3C2)c(F)cc2c(=O)c(C(=O)O)cn(C3CC3)c12 [drawing 450]
– | – | – | – | 0.25 µg/mL (≈ 0.621 µM) | 0.03 µg/mL (≈ 0.0745 µM) | 0.03 µg/mL (≈ 0.0745 µM) | COc1c(N2CCC(C3(O)CC3)C2)c(F)cc2c(=O)c(C(=O)O)cn(C3CC3)c12 (centres unmarked) [drawing 327]
